From US20170314077A1, “SLFN11 AS BIOMARKER FOR AML” (BERGENBIO AS, priority 2014, published 2017)
Entries after “also recorded” stand apart in the source; their conditions may differ.

Columns and labels:
[1] = system: Slfn11 expression in OCI-M1 cells; assay: Flow cytometry of Slfn11 expression in OCI-M1 cells after treatment; type: cell-based, human; conditions: OCI-M1, treated at IC50-values for 24, 48 and 72 hours
Method: (§1) Live cells were centrifuged at 300 g for 5 minutes, washed once with PBS and centrifuged again. Cells were then fixed in 4% PFA in PBS for 10 minutes at 37° C., and resuspended in PBS. Unless processed immediately, samples were at this point stored in PBS at 4° C. (up to three weeks) or at −80° C. (for long-term storage). If intracellular epitopes were stained, cells were permebealized in 90% MeOH for 30 minutes on ice. Unless processed immediately, samples were also be stored in 90% MeOH at −20° C. for up to two months.
(§2) Cells (150-200 000 per sample) were washed 1× in PBS and incubated in blocking buffer; (PBS+0.5% BSA) for 15 minutes at room temperature. Thereafter, cells were incubated with primary mouse-anti-human SLFN11 Ab at the indicated dilutions in incubation buffer (IB, PBS+0.5% BSA) for 1 hour at room temperature. Cells were then washed 3× with IB and incubated with secondary AB (conjugated to a fluorescent flurophore) at 1:1000 dilution in IB for 30 minutes at room temperature. Finally, cells were washed 3× in IB and resuspended in PBS. For costaining experiments, cells were subsequently incubated with mouse-anti-human Axl Ab (1H12-A647 conjugated Ab) diluted 1:3000 in IB. Cells were analyzed immediately, or stored for up to 24 hours at 4° C. before analysis. […]

[2] = system: SLFN11 expression in Kasumi cells; assay: Flow cytometry of total SLFN11 in Kasumi cells after long-term treatment; type: cell-based, human; conditions: 2.5 μM
Method: as §1, §2

[3] = system: Slfn11 expression in MOLM-13 cells; assay: Western blot of Slfn11 in MOLM-13 cells, increasing doses; type: cell-based, human; conditions: MOLM-13, 48 hours, increasing doses 0.1 uM to 1.2 uM
Method: (§3) For western blot analysis, cells were lysed on ice using NP-40 lysis buffer with protease- and phosphatase inhibitors. Total protein concentration in lysates was measured using a BCA protein assay kit following the manufacturers instructions. 10% NuPAGE® Bis-Tris precast gels were loaded with 30-50 μg of protein in each well diluted in sample buffer and antioxidant. A 1:1 mix of MagicMark™ XP Western Protein Standard (Invitrogen) and SeeBlue® Plus 2 Pre-Stained Standard was used as protein standard. Gels were run at 50V for 20 min, then at 100V for 1 h30 min. Blotting was done on ice for 1 h 30 min at 100V onto PVDF (pre-activated with MeOH) or nitrocellulose membranes. Membranes were washed in TBS-0.1% Tween-20 (TBS-T), and blocked in TBS-T 5% BSA for at least 1 h at RT. Primary antibody was added at 1:1000 in TBS-T 5% BSA (rabbit-anti-actin Ab was added at 1:2000, rabbit anti-GAPDH Ab was added at 1:3000) in TBS-T 5% BSA, and membranes were incubated over night at 4° C. Membranes were then washed 3× in TBS-T, and incubated in HRP-conjugated secondary antibody at 1:5000 dilution in TBS-T 5% milk for 45 min at RT. Membranes were developed for 1 min using ECL-reagents and imaged with chemiluminescence using a Molecular Imager ChemiDoc™ XRS (BioRad).

[4] = system: SLFN11 expression in OCI-AML5 cells; assay: Flow cytometry of total SLFN11 in OCI-AML5 cells after long-term treatment; type: cell-based, human; conditions: OCI-AML5, 2.5 μM
Method: as §1, §2

[5] = system: SLFN11 transcript; assay: Microarray analysis of subcutaneous Mv4-11 xenograft tumors (study 1 and study 2); type: in vivo, NOD/SCID mice; conditions: for downregulation of SLFN11 transcript (Rank Product Analysis): study 2, Mv4-11 xenografts, vs control
Method: (§4) To identify new potential biomarkers of BGB324 efficacy in AML, microarray analyses of tumor material from several AML studies were performed. In the first two studies, NOD/SCID mice were implanted with subcutaneous Mv4-11 xenografts. In study 1 the mice were treated with control (vehicle) or a single dose of BGB324 (50 or 100 mg/kg), and sacrificed after 24 hours. In study 2 the mice were treated BID for 14 days with control (vehicle), low (25 mg/kg) or high (50 mg/kg) dose of BGB324 for 14 days. In a third study, MOLM13 cells were injected intravenously into the tail vein of NSG mice. After three days of inoculation, the animals were treated with control (vehicle), high (50 mg/kg) or low (25 mg/kg) dose of BGB324 QD until the vehicle-treated animals were moribund (14 days after initiation of treatment). Development of leukemia was confirmed by flow cytometric analyses of human CD33/CD45-positive cells in the blood, spleens and bone marrow, and RNA isolated from spleens were sent for microarray analysis.
One of the most interesting hits from a Rank Product Analysis of study 2 was a transcript called SLFN11.

[6] = system: PHGDH; assay: MOLM13 systemic xenograft model: biomarker flow cytometry in CD33-positive cells, PHGDH; type: in vivo, mice; conditions: 50 mg/kg for 4 days
Method: (§5) Material from an in vivo MOLM13 systemic model was also evaluated by flow cytometry. Expression of the previously evaluated biomarkers was examined in cells isolated from bone marrows and spleens of animals with systemic AML disease (MOLM13, inoculated for 7 days prior to treatment) treated with BGB324 at 50 mg/kg for 4 days.
(§6) Cells isolated from spleens and bone marrows were assessed for phosphorylation of Erk, PLCγ1 and Akt, and expression of PHGDH and SLFN11. The samples were also co-stained with CD33, and biomarker expression was only evaluated in CD33-positive cells.

[7] = system: pAkt; assay: MOLM13 systemic xenograft model: biomarker flow cytometry in CD33-positive cells, pAkt; type: in vivo, mice; conditions: 50 mg/kg for 4 days
Method: as §5, §6

[8] = system: pPLCγ1; assay: MOLM13 systemic xenograft model: biomarker flow cytometry in CD33-positive cells, pPLCγ1; type: in vivo, mice; conditions: 50 mg/kg for 4 days
Method: as §5, §6

[9] = system: Slfn11 expression in OCI-AML3 cells; assay: Flow cytometry of Slfn11 expression in OCI-AML3 cells after treatment; type: cell-based, human; conditions: OCI-AML3, treated at IC50-values for 24, 48 and 72 hours
Method: as §1, §2

[10] = system: SLFN11 expression in Mv4-11 cells; assay: Flow cytometry of total SLFN11 in Mv4-11 cells after long-term treatment; type: cell-based, human
Method: as §1, §2

[11] = system: SLFN11 transcript; assay: Microarray analysis of spleen RNA, systemic MOLM13 AML model (study 3); type: in vivo, NSG mice; conditions: study 3, systemic MOLM13, 25 or 50 mg/kg QD, 14 days
Method: as §4

[12] = system: SLFN11; assay: MOLM13 systemic xenograft model: biomarker flow cytometry in CD33-positive cells, SLFN11; type: in vivo, mice; conditions: bone marrows, 50 mg/kg for 4 days
Method: as §5, §6

[13] = system: Slfn11 expression in MOLM-13 cells; assay: Flow cytometry of Slfn11 expression in MOLM-13 cells after treatment; type: cell-based, human
Method: as §1
Cells (150-200 000 per sample) were washed 1× in PBS and incubated in blocking buffer; (PBS+0.5% BSA) for 15 minutes at room temperature. Thereafter, cells were incubated with primary mouse-anti-human SLFN11 Ab at the indicated dilutions in incubation buffer (IB, PBS+0.5% BSA) for 1 hour at room temperature. Cells were then washed 3× with IB and incubated with secondary AB (conjugated to a fluorescent flurophore) at 1:1000 dilution in IB for 30 minutes at room temperature. Finally, cells were washed 3× in IB and resuspended in PBS. For costaining experiments, cells were subsequently incubated with mouse-anti-human Axl Ab (1H12-A647 conjugated Ab) diluted 1:3000 in IB. Cells were analyzed immediately, or stored for up to 24 hours at 4° C. before analysis.
Analysis of cells was done on a BD LSR Fortessa or a BD C6 Accuri flow cytometer, and further processing was done using FlowJo v.7.6.

[14] = system: Slfn11 protein; assay: Western blot of MV4-11 subcutaneous tumor xenograft lysates; type: in vivo, mice; conditions: MV4-11 xenografts
Method: as §3
In these studies, mice had been treated with BGB324 25 mg/kg BID and 50 mg/kg BID 2-5 cycle for 14 days, or with a single dose 100 mg/kg (tumors harvested 6 h after treatment).
Since Slfn11 was reduced in only one of two parallel tumor samples after a single treatment, it was decided to examine more lysates from Study 1 by western blot. In this study, mice with subcutaneous MV4-11 tumor xenografts were treated with a single low (50 mg/kg) or high (100 mg/kg) dose of BGB324, and tumors were harvested at different time points, from 4 hours up to 72 hours after treatment. […] Thus, it appears that Slfn11 is reduced in MV4-11 xenografts within 24-72 hours (depending on the drug concentration) after treatment with a single dose of BGB324. The effect of BGB324 on Slfn11 expression in these tumors appears to be long-lasting, as the protein level stays low 72 hours after treatment. However, there appear to be individual differences, and more than two parallel samples of each time point need to be examined in order to better understand the dynamics of Slfn11 reduction in MV4-11 xenografts after BGB324-treatment.

[15] = system: MOLM13 leukemic cells (CD33/CD45-positive); assay: MOLM13 systemic xenograft model: CD33/CD45-positive leukemic cells by flow cytometry; type: in vivo, mice; conditions: 50 mg/kg for 4 days
Method: as §5
Cells harvested from spleens, blood and bone marrows of the animals were stained with anti CD33 and CD45 antibodies, to determine if systemic disease was established. CD33/CD45-positive cells were identified in spleens (around 10-15%), bone marrows (35-40%) and in the blood (2-6%) of the animals, confirming that the disease was established.

[16] = system: pErk; assay: MOLM13 systemic xenograft model: biomarker flow cytometry in CD33-positive cells, pErk; type: in vivo, mice; conditions: 50 mg/kg for 4 days
Method: as §5, §6

## Nc1nc(Nc2ccc3c(c2)CC[C@@H](N2CCCC2)CC3)nn1-c1cc2c(nn1)-c1ccccc1CCC2 [BGB324]
[1]
  SLFN11 expression (flow cytometry): marked reduction
[2]; 24 and 48 hours
  total protein expression of SLFN11 (flow cytometry, % of control): no significant differences
[2]; 72 hours
  total protein expression of SLFN11 (flow cytometry, % of control): significant increase
[3]
  Slfn11 expression (western blot): dose-dependent downregulation; also recorded: dose-dependent reduction
[3]; listed as BGB324/R428
  Slfn11 expression (western blot): reduced in a dose-dependent manner
[4]; 24 and 48 hours
  total protein expression of SLFN11 (flow cytometry, % of control): no significant differences
[4]; 72 hours
  total protein expression of SLFN11 (flow cytometry, % of control): significant increase
[5]; study 1, Mv4-11 xenografts, single dose (50 or 100 mg/kg), sacrificed after 24 hours
  reduction of SLFN11 transcript (Rank Product Analysis): 1.449 fold
[5]; study 2, 25 and 50 mg/kg
  SLFN11 transcript regulation after 14d treatment (in words): highly significant dose-dependent downregulation
[5]; study 2, 14 d treatment, q=0.0
  SLFN11 transcript, SAM (significance of microarray) analysis: reduction of SLFN11 as the most significant (#1) hit
[5]; 25 mg/kg BID for 14 days
  downregulation of SLFN11 transcript (Rank Product Analysis): 1.98 fold
[5]; 50 mg/kg BID for 14 days
  downregulation of SLFN11 transcript (Rank Product Analysis): 3.98 fold
[6]; bone marrows
  PHGDH expression in CD33-positive cells: significant reduction
[6]; spleens
  PHGDH expression in CD33-positive cells: significant reduction
[7]; bone marrows
  pAkt change in CD33-positive cells: not significant
[7]; spleens
  pAkt change in CD33-positive cells: not significant
[8]; bone marrows
  pPLCγ1 in CD33-positive cells: significant reduction
[8]; spleens
  pPLCγ1 in CD33-positive cells: significant reduction
[9]
  SLFN11 expression (flow cytometry): marked reduction
[10]; Mv4-11, 0.1 uM, 72 hours
  total protein expression of SLFN11 (flow cytometry, % of control): significantly reduced
[10]; Mv4-11, 0.3 μM, 24, 48 and 72 hours
  total protein expression of SLFN11 (flow cytometry, % of control): significant reduction
[11]
  SLFN11 transcript regulation in spleens: not among the transcripts that were significantly downregulated
[12]
  SLFN11 expression in CD33-positive cells: significant reduction
[13]; MOLM13, 0.3 μM, 24, 48 and 72 hours
  total protein expression of SLFN11 (flow cytometry, % of control): significant reduction
[13]; MOLM-13, 48 hours, increasing doses 0.1 uM to 1.2 uM
  SLFN11 expression (flow cytometry): dose-dependent downregulation; also recorded: confirmed
[13]; MOLM-13, treated at IC50-values for 24, 48 and 72 hours
  SLFN11 expression (flow cytometry): marked reduction
[14]; 25 mg/kg BID and 50 mg/kg BID, 14 days
  Slfn11 protein compared to control levels (western blot): marked reduction
[14]; single dose 100 mg/kg, tumors harvested 6 h after treatment
  Slfn11 protein (western blot): reduced in one of the two parallel samples
[14]; single dose, 72 hours after treatment
  duration of effect on Slfn11 protein level: stays low
[14]; single dose, depending on the drug concentration
  time after single dose within which Slfn11 is reduced: 24 to 72 h
[14]; single high dose 100 mg/kg, 24, 48 and 72 hours after treatment
  Slfn11 protein (western blot): reduction
[14]; single high dose 100 mg/kg, time points earlier than 24 hours (from 4 hours)
  Slfn11 protein (western blot): not at earlier time points
[14]; single low dose 50 mg/kg, 72 hours after treatment
  Slfn11 protein (western blot): slight reduction
[15]; blood
  percentage of leukemic cells (CD33/CD45-positive) vs. vehicle-treated: significantly higher percentage
[15]; bone marrows
  percentage of leukemic cells (CD33/CD45-positive) vs. vehicle-treated: no significant differences
[15]; spleens
  percentage of leukemic cells (CD33/CD45-positive) vs. vehicle-treated: no significant differences
[16]; bone marrows
  pErk in CD33-positive cells: significant reduction
[16]; spleens
  pErk in CD33-positive cells: significant reduction
